The record followed here is US20070254863A1 (priority 2006, published 2007).

For experiment [1], the target named is human cannabinoid CB2 receptor (Homo sapiens, UniProt P34972). Description: biochemical. It is filed as binding. The method, then: 3. In Vitro Binding Affinity of the Test Compounds to CB2 Receptors
After incubation of a freshly prepared cell membrane preparation with the [^3H]-ligand, with or without the addition of the compounds described herein, separation of bound and free ligand is performed by filtration over glass-fiber filters. Radioactivity on the filter is measured by liquid scintillation counting.

In another experiment the target is T1, hamster SUR1 (Cricetus cricetus, UniProt Q09427).
T1 construct: expressed in transfected cells; host or cells: COS-1 cells, transient (pcDNA vector)
T1 sequence (Q09427 whole entry): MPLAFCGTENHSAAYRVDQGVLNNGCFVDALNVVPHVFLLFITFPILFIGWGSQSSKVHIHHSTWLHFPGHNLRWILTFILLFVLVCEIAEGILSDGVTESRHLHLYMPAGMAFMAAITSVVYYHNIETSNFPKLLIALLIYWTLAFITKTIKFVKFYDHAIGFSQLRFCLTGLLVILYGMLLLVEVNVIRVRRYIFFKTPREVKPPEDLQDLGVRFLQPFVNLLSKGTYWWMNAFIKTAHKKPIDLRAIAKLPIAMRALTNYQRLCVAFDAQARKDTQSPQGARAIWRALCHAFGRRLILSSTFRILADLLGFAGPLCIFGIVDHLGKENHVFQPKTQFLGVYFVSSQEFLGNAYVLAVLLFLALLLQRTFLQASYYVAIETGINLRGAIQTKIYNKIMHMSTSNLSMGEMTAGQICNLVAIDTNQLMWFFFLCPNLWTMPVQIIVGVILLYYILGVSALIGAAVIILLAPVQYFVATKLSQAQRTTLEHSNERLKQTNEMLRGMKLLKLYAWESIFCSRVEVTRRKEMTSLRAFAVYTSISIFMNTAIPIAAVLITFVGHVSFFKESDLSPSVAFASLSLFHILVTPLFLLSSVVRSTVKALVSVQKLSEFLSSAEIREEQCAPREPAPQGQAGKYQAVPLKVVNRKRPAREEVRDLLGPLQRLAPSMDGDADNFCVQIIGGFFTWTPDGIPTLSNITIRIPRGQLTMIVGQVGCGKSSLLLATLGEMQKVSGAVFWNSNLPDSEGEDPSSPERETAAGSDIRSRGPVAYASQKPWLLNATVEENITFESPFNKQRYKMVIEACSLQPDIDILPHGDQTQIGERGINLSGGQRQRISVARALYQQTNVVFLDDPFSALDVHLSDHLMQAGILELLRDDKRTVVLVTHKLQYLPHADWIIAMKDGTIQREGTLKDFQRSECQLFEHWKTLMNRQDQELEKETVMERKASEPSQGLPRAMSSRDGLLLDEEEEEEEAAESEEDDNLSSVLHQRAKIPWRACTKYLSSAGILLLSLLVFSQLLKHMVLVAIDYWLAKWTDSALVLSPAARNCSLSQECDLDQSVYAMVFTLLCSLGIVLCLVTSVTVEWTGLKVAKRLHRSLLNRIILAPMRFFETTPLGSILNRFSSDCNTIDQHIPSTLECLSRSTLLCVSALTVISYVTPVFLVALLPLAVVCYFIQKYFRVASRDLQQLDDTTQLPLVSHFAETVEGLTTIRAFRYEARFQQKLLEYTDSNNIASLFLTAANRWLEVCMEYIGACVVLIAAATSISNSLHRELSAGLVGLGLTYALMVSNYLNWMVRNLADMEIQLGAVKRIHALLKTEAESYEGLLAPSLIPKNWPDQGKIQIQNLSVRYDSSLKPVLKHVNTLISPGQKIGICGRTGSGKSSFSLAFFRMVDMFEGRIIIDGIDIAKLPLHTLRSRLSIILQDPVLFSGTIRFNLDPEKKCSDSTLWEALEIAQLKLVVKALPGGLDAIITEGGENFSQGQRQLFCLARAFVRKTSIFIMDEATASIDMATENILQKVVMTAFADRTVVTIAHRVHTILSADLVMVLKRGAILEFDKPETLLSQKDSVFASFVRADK
Kind of experiment: In vitro binding affinity to rodent KATP channels: SUR1 ([3H]glibenclamide displacement, COS cell membranes). Conditions: hamster SUR1 in COS cell membranes; for Ki: read-out: Affinity to SUR 1 (converted). The protocol: 1. In Vitro Binding Affinity of the Test Compounds to Rodent KATP Channels
Competitive binding experiments were performed to characterize the affinity of the test compounds for the binding sites for sulfonylureas and KATP channel openers (KCOS) on hamster SUR1. To assess the affinity for the sulfonylurea site, membranes from COS-cells transiently expressing hamster SUR1 were incubated in the presence of [^3H]glibenclamide with increasing concentrations of test compounds. […] For each test compound four displacement curves were measured (+/−MgATP from the human and hamster isoform). Per curve 9-15 distinct concentrations were tested covering the relevant range. All measurements were repeated at least 5 times in independent experiments.
(§1) [^3H]glibenclamide (specific activity 51 Ci mmol^−1) was obtained from NEN (Dreieich, Germany). Where needed, stock solutions were prepared in dimethylsulfoxide with a final solvent concentration in the media below 1%.
(§2) SUR- or Kir6.x isoforms were used either subcloned in the pcDNA (hamster SUR1, mouse Kir6.2) or pCMV vector (rat SUR2A, SUR2B).
(§3) For transfection, the cells were incubated 4 hours in a Tris-buffered salt solution containing DNA (5-10 μg/ml) plus DEAE-dextran (1 mg/ml), 2 min in HEPES-buffered salt solution plus dimethylsulfoxide (10%) and 4 hours in DMEM-HG plus chloroquine (100 μM). Cells were then returned to DMEM-HG plus 10% FCS. […] For binding experiments, resuspended membranes (final protein concentration 5-50 μg/ml) were incubated in “Tris-buffer” (50 mM, pH 7.4) containing either [^3H]glibenclamide (final concentration 0.3 nM or 3 nM and nonspecific binding defined by 100 nM or 1 μM glibenclamide for SUR1 or SUR2Y1205S-isoforms, respectively) or [^3H]P1075 (final concentration 3 nM, nonspecific binding defined by 100 μM pinacidil) and increasing concentrations of the test compounds. The free Mg^2+ concentration were kept close to 0.7 mM. […] Incubations were carried out for 1 h at room temperature and were terminated by rapid filtration through Whatman GF/B filters.
(§4) The inhibition constant (Ki value) of the test substances was calculated from the respective IC50 value, and was stated as the negative logarithmic value thereof (pKi).

The next experiment concerns the target rat SUR2A (Rattus norvegicus, UniProt Q63563). Description: In vitro binding affinity to rodent KATP channels: SUR2A ([3H]P1075 / [3H]glibenclamide displacement, COS cell membranes). The method, then: Therefore, two strategies can be used to detect binding to the sulfonylurea site on SUR2A.
Membranes from COS-cells transiently expressing rat SUR2A were incubated in the presence of the radioligands with increasing concentrations of test compounds as described above. […] For each test compound four displacement curves were measured (displacement of [^3H]P1075 from the rat isoform of the wild type receptor and displacement of [^3H]glibenclamide from the rat isoform of SUR2AY1205S). Per curve 9-15 distinct concentrations were tested covering the relevant range. All measurements were repeated at least 5 times in independent experiments.
as §1, §2, §3, §4

Where [2] appears, read: cloned human CB2 receptor expressed in CHO cells, read-out: Affinity to CB2 (converted).

The structures appear in SMILES notation. Where two headings read alike, the source gives them in different places.

rat SUR2A, sequence (Q63563 whole entry, canonical isoform): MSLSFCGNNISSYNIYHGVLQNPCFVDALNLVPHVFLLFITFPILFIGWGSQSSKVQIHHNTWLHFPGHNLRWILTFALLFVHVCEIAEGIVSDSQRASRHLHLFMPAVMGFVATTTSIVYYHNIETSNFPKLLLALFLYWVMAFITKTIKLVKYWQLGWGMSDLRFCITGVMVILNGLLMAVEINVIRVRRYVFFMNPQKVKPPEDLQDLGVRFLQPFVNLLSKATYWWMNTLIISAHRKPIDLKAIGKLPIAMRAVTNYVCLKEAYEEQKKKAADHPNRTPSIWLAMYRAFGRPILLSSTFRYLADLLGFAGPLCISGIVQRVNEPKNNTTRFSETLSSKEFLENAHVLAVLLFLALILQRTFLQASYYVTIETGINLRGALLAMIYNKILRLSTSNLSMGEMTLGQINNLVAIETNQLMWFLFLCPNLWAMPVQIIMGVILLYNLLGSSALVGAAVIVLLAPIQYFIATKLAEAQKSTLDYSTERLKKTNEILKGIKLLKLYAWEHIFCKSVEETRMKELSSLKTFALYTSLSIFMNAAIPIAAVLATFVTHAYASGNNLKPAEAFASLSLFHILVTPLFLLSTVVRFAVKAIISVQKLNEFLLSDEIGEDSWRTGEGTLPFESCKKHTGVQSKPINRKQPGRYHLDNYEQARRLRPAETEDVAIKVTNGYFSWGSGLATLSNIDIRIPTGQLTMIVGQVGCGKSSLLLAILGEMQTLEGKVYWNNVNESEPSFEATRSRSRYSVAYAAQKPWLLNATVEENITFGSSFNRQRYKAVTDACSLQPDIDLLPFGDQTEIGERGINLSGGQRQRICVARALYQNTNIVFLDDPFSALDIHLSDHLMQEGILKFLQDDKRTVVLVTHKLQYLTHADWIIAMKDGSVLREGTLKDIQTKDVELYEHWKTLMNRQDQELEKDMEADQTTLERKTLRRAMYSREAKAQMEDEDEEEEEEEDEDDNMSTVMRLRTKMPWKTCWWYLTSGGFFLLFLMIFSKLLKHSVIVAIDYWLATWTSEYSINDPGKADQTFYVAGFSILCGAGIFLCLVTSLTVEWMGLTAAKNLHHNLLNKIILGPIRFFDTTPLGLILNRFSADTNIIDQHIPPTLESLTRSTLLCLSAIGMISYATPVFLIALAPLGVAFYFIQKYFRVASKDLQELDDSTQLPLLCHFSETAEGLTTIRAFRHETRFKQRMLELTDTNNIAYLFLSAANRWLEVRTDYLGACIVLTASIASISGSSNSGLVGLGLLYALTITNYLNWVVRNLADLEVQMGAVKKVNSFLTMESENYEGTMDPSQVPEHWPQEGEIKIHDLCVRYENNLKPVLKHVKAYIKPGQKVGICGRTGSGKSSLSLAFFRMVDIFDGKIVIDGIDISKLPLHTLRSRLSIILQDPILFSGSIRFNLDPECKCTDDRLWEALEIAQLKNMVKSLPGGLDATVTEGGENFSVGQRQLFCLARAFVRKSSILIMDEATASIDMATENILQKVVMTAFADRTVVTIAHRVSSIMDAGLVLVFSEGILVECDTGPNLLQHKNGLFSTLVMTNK
human cannabinoid CB2 receptor, sequence (P34972 whole entry): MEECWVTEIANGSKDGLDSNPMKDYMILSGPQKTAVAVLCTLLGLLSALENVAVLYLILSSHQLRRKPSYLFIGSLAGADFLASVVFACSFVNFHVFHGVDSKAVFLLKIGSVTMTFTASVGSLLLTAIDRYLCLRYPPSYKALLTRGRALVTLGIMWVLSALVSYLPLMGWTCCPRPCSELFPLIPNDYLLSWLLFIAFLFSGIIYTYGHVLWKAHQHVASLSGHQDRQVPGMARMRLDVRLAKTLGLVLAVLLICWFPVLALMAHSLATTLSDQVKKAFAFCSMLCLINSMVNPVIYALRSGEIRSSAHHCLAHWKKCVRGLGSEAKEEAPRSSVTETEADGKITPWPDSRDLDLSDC

With `N/C(=N\S(=O)(=O)c1ccc(Cl)cc1)N1C[C@@H](c2ccccc2)C(c2ccc(Cl)cc2)=N1` (stereo in doubt) [N-{Amino-[3-(4-chloro-phenyl)-4-phenyl-4,5-dihydro-pyrazol-1-yl]-methylene}-4-chloro-benzenesulfonamide], the values for the Ki (in experiment [1]; on hamster SUR1) were 0.158 µM and 0.794 µM, respectively. The pKi on rat SUR2A is listed as 5.4.
In the case of `CCc1c(C(=O)NC2CCCCC2)nc(-c2ccc(Cl)cc2Cl)n1-c1ccc(Br)cc1` [1-(4-Bromo-phenyl)-2-(2,4-dichloro-phenyl)-5-ethyl-1H-imidazole-4-carboxylic acid cyclohexylamide], the Ki in experiment [1] (setting [2]) was 0.2 µM; at hamster SUR1, 100 µM. On rat SUR2A, this compound yielded a negative-log Ki (pKi) of 5.1.
The like results for `O=C(NN1CCCCC1)c1cn(-c2ccc(Cl)cc2)c(-c2ccc(Cl)cc2Cl)n1` [1-(4-Chloro-phenyl)-2-(2,4-dichloro-phenyl)-1H-imidazole-4-carboxylic acid piperidin-1-ylamide] were, in that order, 0.631 µM, 31.6 µM and 5.3.
`CCc1c(C(=O)NN2CCCCC2)nc(-c2ccc(Cl)cc2Cl)n1-c1ccc(Cl)cc1` [1-(4-Chloro-phenyl)-2-(2,4-dichloro-phenyl)-5-ethyl-1H-imidazol-4-carboxylic acid piperidin-1-ylamide]: the results for the Ki (in experiment [1]; at hamster SUR1) were 0.501 µM and 5.01 µM, respectively. On rat SUR2A, this compound displayed a pKi of 5.5.
Regarding `O=C(NN1CCCCC1)c1nc(-c2ccc(Cl)cc2Cl)n(-c2ccc(Cl)cc2)c1CF` [1-(4-Chloro-phenyl)-2-(2,4-dichloro-phenyl)-5-fluoromethyl-1H-imidazole-4-carboxylic acid piperidin-1-ylamide], the figures for the Ki (in experiment [1] (setting [2]); on hamster SUR1) were 0.794 µM and 6.31 µM, respectively. On rat SUR2A, this compound gave a negative-log Ki (pKi) of 5.5.
Take `CCCCC/C=C\C/C=C\C/C=C\C/C=C\CCCC(=O)OC(CO)CO` [2-AG, Icosa-5,8,11,14-tetraenoic acid 2-hydroxy-1-hydroxymethyl-ethyl ester, reference compound]: the Ki in experiment [1] (setting [2]) is 3.98 µM; at hamster SUR1, 2.51 µM.
For the compound `CON(C)C(=NS(=O)(=O)c1ccc(Cl)cc1)N1CC(c2ccccc2)C(c2ccc(Cl)cc2)=N1` (centres unmarked) [4-Chloro-N-[[3-(4-chloro-phenyl)-4-phenyl-4,5-dihydro-pyrazol-1-yl]-(methoxy-methyl-amino)-methylene]-benzenesulfonamide], on hamster SUR1, the Ki is 1.26 µM. Moreover, at rat SUR2A, the negative logarithm of the Ki (pKi) is 5.9.
The like results for `O=S(=O)(N=C(NC1CCNCC1)N1CC(c2ccccc2)C(c2ccc(Cl)cc2)=N1)c1ccc(Cl)cc1` (centres unmarked) [4-Chloro-N-[[3-(4-chloro-phenyl)-4-phenyl-4,5-dihydro-pyrazol-1-yl]-(piperidin-4-ylamino)-methylene]-benzenesulfonamide] were, in that order, 31.6 µM and 4.6.
Take `CON/C(=N\S(=O)(=O)c1ccc(Cl)cc1)N1C[C@H](c2cccc(F)c2)C(c2ccc(Cl)cc2)=N1` [4-Chloro-N-{[3-(4-chloro-phenyl)-4-(3-fluoro-phenyl)-4,5-dihydro-pyrazol-1-yl]-methoxyamino-methylene}-benzenesulfonamide]: the Ki at hamster SUR1 is 2.51 µM. This compound yielded a pKi on rat SUR2A of 6.1.
The like results for `N#Cc1cc(-c2ccc(Br)cc2)n(-c2ccc(Cl)cc2Cl)n1` [5-(4-Bromo-phenyl)-1-(2,4-dichloro-phenyl)-1H-pyrazole-3-carbonitrile] were, in that order, 100 µM and 5.4.
For `O=C(NN1CCCC1)c1nc(-c2ccc(Cl)cc2)n(-c2ccc(Cl)cc2Cl)n1` [5-(4-Chloro-phenyl)-1-(2,4-dichloro-phenyl)-1H-[1,2,4]triazole-3-carboxylic acid pyrrolidin-1-ylamide], the Ki at hamster SUR1 was 100 µM. At rat SUR2A, this compound displayed a pKi of 4.4.
`O=C(NN1CCCCC1)c1nc(-c2ccc(Cl)cc2Cl)c(-c2ccc(Cl)cc2)s1` [5-(4-Chloro-phenyl)-4-(2,4-dichloro-phenyl)-thiazole-2-carboxylic acid piperidin-1-ylamide]: the Ki at hamster SUR1 is 2 µM. This compound also returned a negative-log Ki (pKi) on rat SUR2A of 5.5.
The like results for `CN/C(=N\S(=O)(=O)N1CCCCCC1)N1CC(c2ccccc2)C(c2ccc(Cl)cc2)=N1` (centres unmarked) [Azepane-1-sulfonic acid [3-(4-chloro-phenyl)-4-phenyl-4,5-dihydro-pyrazol-1-yl]-methylamino-methyleneamide] were, in that order, 25.1 µM and 4.9.
The like results for `CNC(=NS(=O)(=O)N1CCOCC1)C1=NN(c2ccc(Cl)cc2Cl)C(c2ccccc2)C1` (centres unmarked) [Morpholine-4-sulfonic acid [1-(2,4-dichloro-phenyl)-5-phenyl-4,5-dihydro-1H-pyrazol-3-yl]-methylamino-methyleneamide] were, in that order, 5.01 µM and 5.0.
The like results for `CCN(CC)S(=O)(=O)N=C(NC)N1CC(O)(c2ccccc2)C(c2ccc(Cl)cc2)=N1` (centres unmarked) [N,N-Diethylamino-1-sulfonic acid [3-(4-chloro-phenyl)-4-hydroxy-4-phenyl-4,5-dihydro-pyrazol-1-yl]-methylamino-methyleneamide] were, in that order, 100 µM and 5.9.
Take `CCN(CC)S(=O)(=O)N=C(SC)N1CC(c2ccccc2)C(c2ccc(Cl)cc2)=N1` (centres unmarked) [N,N-Diethylamino-1-sulfonic acid [3-(4-chloro-phenyl)-4-phenyl-4,5-dihydro-pyrazol-1-yl]-methylsulfanyl-methyleneamide]: the Ki at hamster SUR1 is 100 µM. In addition, at rat SUR2A, the negative logarithm of the Ki (pKi) worked out at 4.7.
For the compound `CN(C)S(=O)(=O)N=C(NCCF)N1CC(c2ccccc2)C(c2ccc(Cl)cc2)=N1` (centres unmarked) [N,N-Dimethylamino-1-sulfonic acid [3-(4-chloro-phenyl)-4-phenyl-4,5-dihydro-pyrazol-1-yl]-(2-fluoro-ethylamino)-methyleneamide], at hamster SUR1, the Ki was 50.1 µM. For the same compound, on rat SUR2A, the negative-log Ki (pKi) came out at 4.0.
As to `CCCCCc1nc(C(=O)NC23CC4CC(CC(C4)C2)C3)sc1-c1ccccc1` [N-Adamantyl-4-pentyl-5-phenyl-thiazole-2-carboxamide], the Ki on hamster SUR1 is 100 µM. Besides, the pKi on rat SUR2A (rat SUR2A in COS cell membranes) is given as 4.0.
Consider `CNC(=NS(=O)(=O)c1ccc(C(F)(F)F)cc1)N1CC(c2ccccc2)C(c2ccc(Cl)cc2)=N1` (centres unmarked) [N-{[3-(4-Chloro-phenyl)-4-phenyl-4,5-dihydro-pyrazol-1-yl]-methylamino-methylene}-4-trifluoromethyl-benzene-sulfonamide], for which the Ki at hamster SUR1 was 0.501 µM. The compound further displayed a negative logarithm of the Ki (pKi) at rat SUR2A of 4.2.
Turning to `CCCCC/C=C\C/C=C\C/C=C\C/C=C\CCCCOC(CO)CO` [Noladineether, reference compound], the values for the Ki (in experiment [1]; on hamster SUR1) were 0.251 µM and 3.98 µM, respectively.
Take `Cc1c(NC(=O)N2CCCCC2)nn(-c2ccc(Cl)cc2Cl)c1-c1ccc(Cl)cc1` [Piperidine-1-carboxylic acid [5-(4-chloro-phenyl)-1-(2,4-dichloro-phenyl)-4-methyl-1H-pyrazol-3-yl]-amide]: at hamster SUR1, the Ki was 20 µM. For the same compound, the negative-log Ki (pKi) on rat SUR2A is listed as 4.7.
Consider `CCc1c(C(=O)NN2CCCCC2)nn(-c2ccc(Cl)cc2Cl)c1-c1ccc(Br)cc1` [SR-147778, 5-(4-Bromo-phenyl)-1-(2,4-dichloro-phenyl)-4-ethyl-1H-pyrazole-3-carboxylic acid piperidin-1-ylamide, reference compound], for which the figures for the Ki (in experiment [1] (setting [2]); at hamster SUR1) were 1.26 µM and 3.16 µM, respectively.
`O=S(=O)(N=C(NCCF)N1CC(c2ccccc2)C(c2ccc(Cl)cc2)=N1)c1ccc(Cl)cc1` (centres unmarked) [drawing 45, 4-Chloro-N-[[3-(4-chloro-phenyl)-4-phenyl-4,5-dihydro-pyrazol-1-yl]-(2-fluoro-ethylamino)-methylene]-benzenesulfonamide]: the Ki at hamster SUR1 was 25.1 µM. On rat SUR2A, this compound gave a negative-log Ki (pKi) of 4.6.
Turning to `O=S(=O)(N=C(NCCF)N1CC(c2ccccc2)C(c2ccc(Cl)cc2)=N1)c1ccc(Cl)cc1` (centres unmarked) [drawing 46], on hamster SUR1, the “Affinity to SUR 1” value is on record as 4.6. The pKi on rat SUR2A is reported as 5.0.
